In the pKa sets of Baltruschat and Czodrowski (2020):
Where a SMILES comes first, the peptide text is derived from it.

Conditions: basic group

| Compound | pKa |
| --- | --- |
| Nc1ccccc1NC(=O)c1ccc([N+](=O)[O-])cc1 | 3.01 |
| CCN(CC)CCOC(=O)c1ccccc1 | 8.9 |
| CNc1ccc[nH+]c1 | -2.17 |
| COc1ccc(-c2nc3cnccc3[nH]2)c(OC)c1 | 6.49 |
| OCCC[C@@H]1CC[C@@H]2CCCN12 | 11.5 |
| NC(=O)c1c2cccc1COCCOCc1ncc([nH]1)COCCOC2 | 5.72 |
| COc1ccc2c3c1O[C@H]1CCC[C@H]4[C@@H](C2)N(C)CC[C@]314 | 8.83 |
| CCCNN | 7.92 |
| c1ccc(N(CC2CO2)CC2CO2)cc1 (centres undefined) | -0.4 |
| COc1cc(S(C)=O)ccc1-c1nc2nnccc2[nH]1 (centres undefined) | 3.63 |
| C=C(C)C(=O)OCCN(C)C | 8.06 |
| OCCN(CCO)CCc1nnn[nH]1 | 9.2 |
| CCOCCNc1ccc(C)cc1 | 4.6 |
| Clc1ccc(/C=C/c2nnnn2-c2ccccc2)cc1 | -2.54 |
| Cc1cnc(C)cn1 | 1.95 |
| c1cncc([C@@H]2CCCCN2)c1 | 4.01 |
| COc1nccc2ccccc12 | 3.05 |
| N/C(CC[NH3+])=N\O | 3.75 |
| [NH3+]CCCCc1ccncc1 | 5.81 |
| Nc1cccc2cc([N+](=O)[O-])ccc12 | 3.15 |

| Compound | pKa |
| --- | --- |
| NC(=O)CCCCc1cccnc1 | 5.6 |
| NCC(=O)N[C@@H](Cc1c[nH]cn1)C(=O)[O-] (H-Gly-His-OH) | 8.14 |
| CCNCC[NH2+]CC | 7.7 |
| Cc1cc(-c2cc(C)[nH+][nH]2)[nH]n1 | 0.4 |
| CCOC(=O)c1cnc2cc([N+](=O)[O-])ccc2c1[O-] | 9.32 |
| CC(=O)c1ccc(NN=C(C#N)C#N)cc1 | -0.77 |
| C[C@H]1[C@@H](N)[C@@H](C)[C@@H]([NH3+])[C@@H](C)[C@H]1N | 6.73 |
| Cc1ccc(NN=C(C#N)C#N)c([N+](=O)[O-])c1 | -0.78 |
| Nc1ccc(N)cc1 | 6.16 |
| CCOc1ccnc([O-])n1 | 10.7 |
| CN(C)c1ccc(C2CN3CCC2CC3)cc1 (centres undefined) | 10.3 |
| C=C1CC1C[C@H](N)C(=O)[O-] (some centres undefined) | 9.37 |
| NCc1ccccc1O | 8.89 |
| CCCn1ccnc1C=O | 5.15 |
| O=C(Cc1cnccn1)c1ccccc1 | 0.33 |
| OCCCCNCl | 1.49 |
| Cc1noc(C)c1C | -1 |
| N#CC(C#N)=NNc1ccccc1Br | -0.8 |
| OC1(c2cc3ccccc3o2)CN2CCC1CC2 (centres undefined) | 8.84 |
| CN(C)c1ccc(N=O)cc1 | 4.54 |

| Compound | pKa |
| --- | --- |
| CCN(CC)CCCNc1ccnc2ccccc12 | 10 |
| [NH3+]NC(=O)c1ccncc1 | 1.85 |
| c1cnccn1 | 0.57 |
| CCC(C)NC(C)C (centres undefined) | 11 |
| c1cncc(-c2ccncc2)c1 | 4.85 |
| Cc1ccc2c(c1)sc(-c1ccc(N(C)C)cc1)[n+]2C | 2.69 |
| OCCc1cnc(P(c2ncc(CCO)[nH]2)c2[nH]c(CCO)c[nH+]2)[nH]1 | 6.84 |
| COC(=O)Cc1ccccc1N | 3.71 |
| NCCc1cccc(O)c1O | 8.6 |
| O=C([O-])c1nc2cc(Cl)ccc2[nH]1 | 4.3 |
| CN(C)c1ccc(/C=C/c2cc(N)c3ccccc3n2)cc1 | 9.7 |
| NOCc1ccccc1 | 4.34 |
| [S-]c1ccnc([S-])n1 | 11.2 |
| Cc1nnc(C)c(C)c1C | 5.36 |
| Cn1c2c(s/c1=N\N)CCCC2 | 8.2 |
| c1ccc(Oc2ccnc3c2ccc2c(Oc4ccccc4)ccnc23)cc1 | 5.34 |
| NCCCCCCCCCC(=O)[O-] | 11 |
| CCCCCCCCN(CCO)CC(C)O (centres undefined) | 8.2 |
| O=C1CCC[C@H]2[C@H]3C[C@@H](CN12)[C@@H]1CCCCN1C3 | 9.4 |
